Results: patent publication US20080096807A1, “Cyclic vasoactive intestinal peptide receptor-2 agonists” (priority 2006, published 2008)
Bridge positions count the residues as written; N and C are the ends. Square brackets hold non-standard residues; d marks the D form. Peptide text beside a SMILES is read from it. ξ: configuration not given here. Thr(3ξ) = CC(O)[C@H](N)C(=O)O; αMeV = CC(C)[C@](C)(N)C(=O)O; Nle = CCCC[C@H](N)C(=O)O

T1: human neutrophil elastase (Homo sapiens, UniProt P08246)
T1 sequence (P08246 30-247 limits assumed): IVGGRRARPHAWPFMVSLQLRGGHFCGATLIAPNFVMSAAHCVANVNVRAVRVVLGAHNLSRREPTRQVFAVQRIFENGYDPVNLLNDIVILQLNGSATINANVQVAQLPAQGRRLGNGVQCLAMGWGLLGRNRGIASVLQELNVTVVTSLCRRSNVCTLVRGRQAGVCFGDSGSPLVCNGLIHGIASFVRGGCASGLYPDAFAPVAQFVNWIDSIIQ

T2: VPAC2 receptor (Homo sapiens, UniProt P41587)
T2 construct: The human T-lymphoid cell line Sup-Ti, which expresses the VPAC2 receptor; host or cells: Sup-T1 (Sup-Ti [sic]) human T-lymphoid cell line
T2 sequence (P41587 24-438): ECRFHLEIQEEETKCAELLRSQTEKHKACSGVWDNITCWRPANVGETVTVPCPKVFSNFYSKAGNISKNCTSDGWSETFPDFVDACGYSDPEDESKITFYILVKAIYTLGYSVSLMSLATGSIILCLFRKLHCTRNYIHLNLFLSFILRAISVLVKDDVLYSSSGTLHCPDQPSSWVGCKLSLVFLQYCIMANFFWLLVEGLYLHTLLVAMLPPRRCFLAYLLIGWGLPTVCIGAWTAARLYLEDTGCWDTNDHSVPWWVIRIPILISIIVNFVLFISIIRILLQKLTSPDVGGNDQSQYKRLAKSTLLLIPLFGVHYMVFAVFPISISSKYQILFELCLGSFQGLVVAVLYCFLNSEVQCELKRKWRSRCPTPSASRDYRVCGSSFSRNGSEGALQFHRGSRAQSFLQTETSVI

T3: VPAC2 receptor (human, UniProt P41587)
T3 sequence: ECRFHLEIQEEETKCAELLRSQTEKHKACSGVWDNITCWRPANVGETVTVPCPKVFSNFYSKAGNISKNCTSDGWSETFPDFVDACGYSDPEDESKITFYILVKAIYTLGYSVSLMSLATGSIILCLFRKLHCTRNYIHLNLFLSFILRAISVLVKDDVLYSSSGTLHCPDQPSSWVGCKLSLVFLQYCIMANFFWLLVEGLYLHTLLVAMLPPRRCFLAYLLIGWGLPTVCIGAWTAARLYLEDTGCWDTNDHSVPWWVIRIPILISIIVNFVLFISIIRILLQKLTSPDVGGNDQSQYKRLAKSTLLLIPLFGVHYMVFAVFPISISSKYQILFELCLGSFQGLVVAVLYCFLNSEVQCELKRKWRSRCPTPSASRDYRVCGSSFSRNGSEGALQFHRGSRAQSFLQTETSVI


Experiments:
[1] = molecular target: T1, human neutrophil elastase; test: Peptide stability to neutrophil elastase (RP HPLC ESI MS); conditions: halftime with human neutrophil elastase 1 to 2 μg/mL in PBS, ambient temperature, normalized to halftime of the reference standard
Description: The proteolytic stabilities of peptide analogs were established with reversed phase high pressure liquid chromatography (RP HPLC) electrospray ionization mass spectrometry (ESI MS). Peptide analogs were incubated with human neutrophile elastase and the quantity of undigested analogs was determined by ESI MS at appropriate time points. Multiple peptide analogs could be included in one experiment as long as they could be differentiated by HPLC retention time and/or by molecular weight. Ac-His Ac-[sequence]Nle-[sequence]NH2 was used in all experiments as a control and as a reference standard. The simultaneous use of multiple peptide analogs together with a reference standard allowed for compensation for variations in the proteolytic fidelity of the enzyme over the multiple experiments. Integrated ion currents obtained for the individual undigested peptide were used for quantitation. For calculation of halftime first-order kinetic behavior was assumed and all calculations were normalized to the halftime of the reference standard.
Peptide stock solutions were prepared in water to a concentration of 2.5 mg/mL. Unless in use, all stock solutions were kept at −20° C. […] Concentrations of the peptide analogs were adjusted accordingly. In order to do the proteolytic digestion, peptides were dissolved in phosphate buffered saline (PBS) to a concentration of 0.1 mg/mL. As many as six different peptide analogs were mixed into one 50 μL reaction volume. The reference standard was added to all experiments as a reference and internal standard. Elastase (Human Neutrophil, Calbiochem, Cat # 324681) was added from an elastase stock solution to a concentration of 1 to 2 μg/mL. Different amounts of the enzyme were chosen to compensate for the differences in the proteolytic stabilities of the peptide analogs. Previously, a stock solution of elastase was prepared in water at a concentration of 1 mg/mL. Small aliquots of the enzyme stock solution were kept at −20° C. to better maintain the enzyme activity by limiting the number of thaw and freeze cycles.
The digestion was done at ambient temperature in an autosampler tube within the autosampler of the HPLC system (Agilent 1100 Series). For a time course, 5 μL aliquots were injected in 70 minute intervals onto the reversed phase HPLC column (Phenomenex, Luna C18, 3μ, 100 ↑, 150×2.00 mm). For the starting time point an aliquot was injected just prior to the addition of the proteolytic enzyme. A total of eight time points could be recorded from one experiment, including the starting point. Peptides were separated on the reversed phase column with a 50 minute gradient of 5% to 30% organic phase. The aqueous phase was 0.05% (v/v) of trifluoroacetic acid in water and the organic one was 0.045% (v/v) of trifluoroacetic acid in acetonitrile. Absorbances were recorded at 214 and 280 nm respectively. All of the column effluent was introduced into the turbo V source of the electrospray ionization mass spectrometer (ABI 4000 QTrap LC/MS/MS System). Mass spectra were acquired in Q3MS mode in a mass range to include all triply charged ions of the non degraded peptide analogs. Care was taken to assure that peptide analogs could clearly be differentiated either by the chromatographic retention time or by the difference in molecular weight. Relative quantities of the respective undigested peptide analog were calculated from the integrated total ion current. A window of 2.5 Da was chosen and the manufacturer's software was used to integrate the individual ion currents. The overall halftime of an individual peptide analog was calculated by assuming first-order kinetic behavior and was normalized with respect to the halftime of the reference standard.

VPAC2 receptor [2] = molecular target: T2, VPAC2 receptor; test: Sup-T1 cAMP agonist assay; format: cell-based; conditions: human T-lymphoid cell line Sup-T1 expressing VPAC2 receptor; cAMP EIA; 5 min at room temperature; read-out: Sup-T1 cAMP EC50
Summary of the method: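 Sup-T1 human T-lymphoid cells with endogenous VPAC2 (RPMI 1640, 25 mM HEPES, 10% FBS) were plated at 4×10^4 cells/well and exposed to compound for 5 min at room temperature. After lysis, cAMP was measured by enzyme immunoassay. EC50 came from a sigmoidal fit of 7-concentration dose-response data.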

[3] = test system: LPS-induced lung inflammation in male C57BL/6 mice; test: LPS-induced lung inflammation in male C57BL/6 mice (BAL neutrophilia); format: in vivo; conditions: Dose 0.01%, BAL fluid neutrophilia
Description: C57bl/6 mice are pretreated with vehicle or drug prior to an aerosol expose to lipopolysacchride (LPS, 500 μg/ml in sterile saline) for 15-30 minutes. The aerosol is generated by a Pari Ultra neb jet nebulizer, the outlet of which is connected to a small clear plastic chamber [H×W×D, 10.7×25.7×11 cm (4×10×4.5 in)] containing the animals. Bronchoalveolar lavage (BAL) is performed 24 hr later to determine the intensity of cell inflammation. BAL procedure is performed as described below.
Mice are pretreated with vehicle or drug prior to an intranasal administration of lipopolysacchride (0.05-0.3 mg/kg in sterile saline; 50 μl total volume, 25 μl/nostril). Intranasal administration is performed by presenting small droplets of the dosing solution at the nostril using a 25-50 μl eppendorff pipet. BAL is performed 3 to 24 h post LPS challenged as described above to determine the intensity of cell inflammation.
24 h following LPS exposure, animals are anesthetized with pentobarbital (80-100 mg/kg, i.p.), ketamine/xyzaline (80-120 mg/kg/2-4 mg/kg, i.p.) or urethane (1.5-2.4 g/kg, i.p.); and through a small midline neck incision (15-20 mm), the trachea is exposed and cannulated with 20-gauge tubing adapter. Lungs are lavaged with 2×1 ml sterile Hank's balanced salt solution without Ca++ and Mg++(HBSS). Lavage fluid is recovered after 30 sec by gentle aspiration and pooled for each animal. Samples are then centrifuged at 2000 rpm for 10 minutes at 5° C. Supernatant is aspirated, and red blood cells are lysed from the resulting pellet with 0.5 ml distilled water for 30 sec before restoring osmolarity to the remaining cells by the addition of 5 ml of HBSS. Samples are recentrifuged at 2000 rpm for 10 minutes at 5° C. and supernatant aspirated. The resulting pellet is resuspended in 1 ml of HBSS. Total cell number is determined by Trypan Blue (Sigma Chemical, St. Louis, Mo.) exclusion from an aliquot of cell suspension using a hemocytometer or coulter counter. For differential cell counts, an aliquot of the cell suspension is centrifuged in a Cytospin (5 min, 1300 rpm; Shandon Southern Instruments, Sewickley, Pa.) and the slides fixed and stained with a modified Wright's stain (Hema 3 stain kit, Fisher Scientific). Standard morphological criteria is used in classifying at least 300 cells under light microscopy. Data in Table 3 is expressed as BAL cells×10^4/animal for neutrophils and total cells, or percent inhibition of the LPS induced BAL fluid neutrophilia response.

VPAC2 receptor [4] = molecular target: T3, VPAC2 receptor; test: cell-based or functional assay

| Relative elastase stability [1] | EC50 (VPAC2 receptor [2]) | Sup-T1 cAMP EC50 (VPAC2 receptor [4]) | Molecule | Inhibition of LPS-induced neutrophilia [3] |
| --- | --- | --- | --- | --- |
| 12.0 | 1200 nM |  | CCCC[C@H](NC(=O)[C@H](CCC(N)=O)NC(=O)[C@H](CCCCN)NC(=O)[C@H](CCCNC(=N)N)NC(=O)[C@H](CC(C)C)NC(=O)[C@H](CCCCN)NC(=O)[C@@H](NC(=O)[C@H](Cc1ccc(O)cc1)NC(=O)[C@H](CC(N)=O)NC(=O)[C@H](CCC(=O)O)NC(=O)[C@@H](NC(=O)[C@H](Cc1ccccc1)NC(=O)[C@H](CO)NC(=O)[C@H](C)NC(=O)[C@H](CC(=O)O)NC(=O)[C@H](CO)NC(=O)[C@H](Cc1c[nH]cn1)NC(C)=O)C(C)O)C(C)O)C(=O)N[C@@H](CCCCN)C(=O)N[C@@H](C)C(=O)N[C@@H](CCCCN)C(=O)N[C@H]1CCCCNC(=O)C[C@@H](C(=O)N[C@@H](CC(C)C)C(=O)N[C@@H](CCCCN)C(=O)N[C@@H](CCCCN)C(=O)NCC(=O)NCC(=O)N[C@H](C(N)=O)C(C)O)NC(=O)[C@H](CC(N)=O)NC(=O)[C@H](CC(C)C)NC(=O)[C@H](Cc2ccc(O)cc2)NC1=O (stereo partly shown) [Example 9] (Ac-HSDASF[Thr(3ξ)]ENY[Thr(3ξ)]KLRKQ[Nle]KAKKYLNDLKKGG[Thr(3ξ)]-NH2; lactam 21-25) | + (+ 10-30%) |
| 4.8 | 117 nM |  | CCCC[C@H](NC(=O)[C@H](CCCNC(=N)N)NC(=O)[C@H](CCCCN)NC(=O)[C@H](CCCNC(=N)N)NC(=O)[C@H](CC(C)C)NC(=O)[C@H](CCCCN)NC(=O)[C@@H](NC(=O)[C@H](Cc1ccc(O)cc1)NC(=O)[C@H](CC(N)=O)NC(=O)[C@H](CCC(=O)O)NC(=O)[C@@H](NC(=O)[C@H](Cc1ccccc1)NC(=O)[C@H](CO)NC(=O)[C@H](C)NC(=O)[C@H](CC(=O)O)NC(=O)[C@H](CO)NC(=O)[C@H](Cc1c[nH]cn1)NC(C)=O)C(C)O)C(C)O)C(=O)N[C@@H](CCC(=O)O)C(=O)N[C@@H](C)C(=O)N[C@@H](CCCCN)C(=O)N[C@H]1CCCCNC(=O)C[C@@H](C(=O)N[C@@H](CC(C)C)C(=O)N[C@@H](CCCCN)C(=O)N[C@@H](CCCCN)C(=O)NCC(=O)NCC(=O)N[C@H](C(N)=O)C(C)O)NC(=O)[C@H](CC(N)=O)NC(=O)[C@H](CC(C)C)NC(=O)[C@H](Cc2ccc(O)cc2)NC1=O (stereo partly shown) [Example 15] (Ac-HSDASF[Thr(3ξ)]ENY[Thr(3ξ)]KLRKR[Nle]EAKKYLNDLKKGG[Thr(3ξ)]-NH2; lactam 21-25) | + (+ 10-30%) |
|  |  | 4.07 nM | Ac-HADA[αMeV]FTENYTKLRKQ[Nle]AAKKYLNDLLKGGT-NH2 (lactam 21-25; SMILES CCCC[C@H](NC(=O)[C@H](CCC(N)=O)NC(=O)[C@H](CCCCN)NC(=O)[C@H](CCCNC(=N)N)NC(=O)[C@H](CC(C)C)NC(=O)[C@H](CCCCN)NC(=O)[C@@H](NC(=O)[C@H](Cc1ccc(O)cc1)NC(=O)[C@H](CC(N)=O)NC(=O)[C@H](CCC(=O)O)NC(=O)[C@@H](NC(=O)[C@H](Cc1ccccc1)NC(=O)[C@@](C)(NC(=O)[C@H](C)NC(=O)[C@H](CC(=O)O)NC(=O)[C@H](C)NC(=O)[C@H](Cc1c[nH]cn1)NC(C)=O)C(C)C)[C@@H](C)O)[C@@H](C)O)C(=O)N[C@@H](C)C(=O)N[C@@H](C)C(=O)N[C@@H](CCCCN)C(=O)N[C@H]1CCCCNC(=O)C[C@@H](C(=O)N[C@@H](CC(C)C)C(=O)N[C@@H](CC(C)C)C(=O)N[C@@H](CCCCN)C(=O)NCC(=O)NCC(=O)N[C@H](C(N)=O)[C@@H](C)O)NC(=O)[C@H](CC(N)=O)NC(=O)[C@H](CC(C)C)NC(=O)[C@H](Cc2ccc(O)cc2)NC1=O) |  |
|  |  | 9.45 nM | Ac-HSDA[αMeV]FTENYTKLRKQ[Nle]AAKKYLNDLLKGGT-NH2 (lactam 21-25; not fully specified (residue 11); printed as Ac-His-Ser-Asp-Ala-MeVal-Phe-Thr-Glu-Asn-Tyr-thr-Lys-Leu-Arg-Lys-Gln-Nle-Ala-Ala-Lys-Lys-Tyr-Leu-Asn-Asp-Leu-Leu-Lys-Gly-Gly-Thr-NH2) |  |
|  |  | 4.75 nM | Ac-HADA[αMeV]FTENYTKLRKQ[Nle]AAKKYLNDLKKGGT-NH2 (lactam 21-25; SMILES CCCC[C@H](NC(=O)[C@H](CCC(N)=O)NC(=O)[C@H](CCCCN)NC(=O)[C@H](CCCNC(=N)N)NC(=O)[C@H](CC(C)C)NC(=O)[C@H](CCCCN)NC(=O)[C@@H](NC(=O)[C@H](Cc1ccc(O)cc1)NC(=O)[C@H](CC(N)=O)NC(=O)[C@H](CCC(=O)O)NC(=O)[C@@H](NC(=O)[C@H](Cc1ccccc1)NC(=O)[C@@](C)(NC(=O)[C@H](C)NC(=O)[C@H](CC(=O)O)NC(=O)[C@H](C)NC(=O)[C@H](Cc1c[nH]cn1)NC(C)=O)C(C)C)[C@@H](C)O)[C@@H](C)O)C(=O)N[C@@H](C)C(=O)N[C@@H](C)C(=O)N[C@@H](CCCCN)C(=O)N[C@H]1CCCCNC(=O)C[C@@H](C(=O)N[C@@H](CC(C)C)C(=O)N[C@@H](CCCCN)C(=O)N[C@@H](CCCCN)C(=O)NCC(=O)NCC(=O)N[C@H](C(N)=O)[C@@H](C)O)NC(=O)[C@H](CC(N)=O)NC(=O)[C@H](CC(C)C)NC(=O)[C@H](Cc2ccc(O)cc2)NC1=O) |  |
|  |  | 10.5 nM | Ac-HSDA[αMeV]FTENYTKLRKR[Nle]AAKKYLNDLKKGGT-NH2 (lactam 21-25; SMILES CCCC[C@H](NC(=O)[C@H](CCCNC(=N)N)NC(=O)[C@H](CCCCN)NC(=O)[C@H](CCCNC(=N)N)NC(=O)[C@H](CC(C)C)NC(=O)[C@H](CCCCN)NC(=O)[C@@H](NC(=O)[C@H](Cc1ccc(O)cc1)NC(=O)[C@H](CC(N)=O)NC(=O)[C@H](CCC(=O)O)NC(=O)[C@@H](NC(=O)[C@H](Cc1ccccc1)NC(=O)[C@@](C)(NC(=O)[C@H](C)NC(=O)[C@H](CC(=O)O)NC(=O)[C@H](CO)NC(=O)[C@H](Cc1c[nH]cn1)NC(C)=O)C(C)C)[C@@H](C)O)[C@@H](C)O)C(=O)N[C@@H](C)C(=O)N[C@@H](C)C(=O)N[C@@H](CCCCN)C(=O)N[C@H]1CCCCNC(=O)C[C@@H](C(=O)N[C@@H](CC(C)C)C(=O)N[C@@H](CCCCN)C(=O)N[C@@H](CCCCN)C(=O)NCC(=O)NCC(=O)N[C@H](C(N)=O)[C@@H](C)O)NC(=O)[C@H](CC(N)=O)NC(=O)[C@H](CC(C)C)NC(=O)[C@H](Cc2ccc(O)cc2)NC1=O) |  |
